Data taken from article PMC10746543, “Design principles for cyclin K molecular glue degraders” (Nature Chemical Biology, 2023).
“And” between values parts separate entries of the source, which are not always exact repeats. Equal entries are not always repeated. Where two headings read alike, the source gives them in different places.

Tests used:
[1] = biological target: T1, CDK12–cyclin K and DDB1 (Homo sapiens, UniProt Q16531+Q9NYV4, K965R); test: TR-FRET ternary complex formation assay (compound titration); assay type: binding; details: for TR-FRET signal at compound concentration: replicate titrations
T1 construct: His6–CDK12 (a.a. 713–1,052); full-length or beta-propeller B domain deletion (ΔBPB: a.a. 396–705 deleted) constructs of His6–DDB1ΔBPB, StrepII–Avi–DDB1, or His6–Spy–DDB1; made in house; host or cells: Trichoplusia ni High Five insect cells (baculovirus)
T1 sequence (Q9NYV4 713-1052 K965R): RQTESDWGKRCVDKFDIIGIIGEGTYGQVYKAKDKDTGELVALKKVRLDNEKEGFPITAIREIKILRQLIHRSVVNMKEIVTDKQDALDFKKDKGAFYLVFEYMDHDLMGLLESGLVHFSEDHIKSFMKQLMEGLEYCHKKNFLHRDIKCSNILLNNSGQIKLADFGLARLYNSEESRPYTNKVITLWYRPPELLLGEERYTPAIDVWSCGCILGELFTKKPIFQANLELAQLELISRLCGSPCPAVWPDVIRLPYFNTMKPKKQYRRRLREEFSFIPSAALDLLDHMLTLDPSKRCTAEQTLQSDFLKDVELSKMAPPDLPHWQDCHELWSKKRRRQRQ
T1 sequence (O75909 1-267 partner): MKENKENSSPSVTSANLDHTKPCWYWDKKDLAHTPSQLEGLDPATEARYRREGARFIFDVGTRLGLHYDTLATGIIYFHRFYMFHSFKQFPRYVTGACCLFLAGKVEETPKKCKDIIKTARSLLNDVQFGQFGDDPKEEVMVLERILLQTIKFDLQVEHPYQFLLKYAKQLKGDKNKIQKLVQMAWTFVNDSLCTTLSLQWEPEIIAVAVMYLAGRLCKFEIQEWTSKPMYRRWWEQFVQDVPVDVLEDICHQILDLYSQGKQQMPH
T1 sequence (Q16531 whole entry): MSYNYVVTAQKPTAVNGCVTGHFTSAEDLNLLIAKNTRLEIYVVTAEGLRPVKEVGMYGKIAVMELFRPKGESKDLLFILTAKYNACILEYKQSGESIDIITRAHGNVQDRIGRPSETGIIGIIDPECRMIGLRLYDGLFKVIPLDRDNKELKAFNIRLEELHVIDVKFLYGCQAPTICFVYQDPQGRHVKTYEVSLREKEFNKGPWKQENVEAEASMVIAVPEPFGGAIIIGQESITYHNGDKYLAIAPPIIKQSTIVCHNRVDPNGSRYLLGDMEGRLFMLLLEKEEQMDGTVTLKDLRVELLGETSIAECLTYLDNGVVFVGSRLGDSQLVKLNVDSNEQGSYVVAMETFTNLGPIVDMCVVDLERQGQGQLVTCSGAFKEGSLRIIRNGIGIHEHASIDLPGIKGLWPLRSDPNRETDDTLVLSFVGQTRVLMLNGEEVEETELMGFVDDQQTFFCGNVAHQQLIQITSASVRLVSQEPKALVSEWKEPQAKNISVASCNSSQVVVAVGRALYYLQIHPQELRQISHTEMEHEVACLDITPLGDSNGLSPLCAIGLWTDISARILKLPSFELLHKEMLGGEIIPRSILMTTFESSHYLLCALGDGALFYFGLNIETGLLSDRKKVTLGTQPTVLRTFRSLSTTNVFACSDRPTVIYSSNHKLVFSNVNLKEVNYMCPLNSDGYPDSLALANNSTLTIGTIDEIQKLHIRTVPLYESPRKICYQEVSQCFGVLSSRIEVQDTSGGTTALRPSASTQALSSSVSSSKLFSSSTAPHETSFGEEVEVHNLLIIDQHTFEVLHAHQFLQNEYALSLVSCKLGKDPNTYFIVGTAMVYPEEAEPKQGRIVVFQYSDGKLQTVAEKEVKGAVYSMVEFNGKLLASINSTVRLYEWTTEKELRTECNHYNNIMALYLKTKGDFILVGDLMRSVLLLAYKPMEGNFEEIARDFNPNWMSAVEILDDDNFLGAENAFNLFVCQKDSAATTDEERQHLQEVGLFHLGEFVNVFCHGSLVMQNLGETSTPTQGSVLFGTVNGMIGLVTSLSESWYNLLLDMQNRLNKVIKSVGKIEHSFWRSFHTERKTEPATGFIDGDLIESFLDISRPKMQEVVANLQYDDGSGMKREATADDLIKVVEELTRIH
Summary of the method: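 Delayed (70 μs) time-resolved read; FRET computed as 520 nm over 490 nm emission.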

[2] = test system: cyclin K–eGFP degradation reporter; test: Cyclin K reporter stability analysis (dual-color cyclin K–eGFP reporter); assay type: cell-based, human
Protocol: HEK293T–Cas9 cells expressing the cyclin K–eGFP degradation reporter were resuspended at 1 × 10^6 ml^−1 and 50 µl of cell suspension was seeded in non-cell-culture-treated 384-well plates. Shortly after, cells were treated with drug or DMSO for 5 h. […] The fluorescent signal was quantified by flow cytometry (LSRFortessa flow cytometer, BD Biosciences). Using FlowJo (flow cytometry analysis software, BD Biosciences), the geometric mean of the eGFP and mCherry fluorescent signal for round and mCherry-positive cells was calculated. The ratio of eGFP to mCherry was normalized to the average of three DMSO-treated controls.

[3] = test system: HEK293T cells; test: Drug sensitivity assay (CellTiter-Glo viability) with or without MLN4924 pretreatment; assay type: cell-based, human; details: for EC50: Homo sapiens, HEK-293T; for Toxicity rescue: MLN4924-mediated cytotoxicity rescue, 10 µM used where n.d.
Summary of the method: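 Viability of HEK293T–Cas9 cells was compared after 3-day drug treatment with or without 100 nM MLN4924 pretreatment (2 h, versus DMSO). Values are CellTiter-Glo signals relative to DMSO controls.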

[4] = compound concentration 0.468 nM
[5] = compound concentration 7.92001 nM
[6] = compound concentration 15.84 nM
[7] = compound concentration 30.96 nM
[8] = compound concentration 62.6401 nM
[9] = compound concentration 125.28 nM
[10] = compound concentration 244.8 nM
[11] = compound concentration 993.601 nM
[12] = compound concentration 2001.6 nM
[13] = in vitro complex formation, 50 nM CDK12–cyclin K, 100 nM DDB1, text and figures, read-out: TR-FRET EC50
[14] = sheet MOESM7, read-out: log TR-FRET EC50 (converted)
[15] = Supplementary Table 2, HEK293T viability, 72 h, compound alone, read-out: Cellular assays EC50
[16] = compound concentration 79.2001 nM
[17] = compound concentration 158.4 nM
[18] = compound concentration 309.6 nM
[19] = compound concentration 626.401 nM
[20] = compound concentration 1252.8 nM
[21] = compound concentration 9936.01 nM
[22] = compound concentration 20016 nM

For `CC[C@H](CO)Nc1nc(NCc2ccc3ccccc3c2)c2ncn(C(C)C)c2n1` [DS08], the TR-FRET signal [1, 4] was 0.2538 and 0.248 and 0.2145 and 0.2136, the “TR-FRET signal, individual replicate” value [1, 4] was 0.2538 and 0.248 and 0.2145 and 0.2136 and the “TR-FRET signal at compound concentration” value [1, 4] was 0.2538 and 0.248 and 0.2145 and 0.2136. The TR-FRET signal ([1]; compound concentration 2.16 nM) was 0.2768 and 0.2874 and 0.2634 and 0.2686, the “TR-FRET signal, individual replicate” value ([1]; compound concentration 2.16 nM) was 0.2768 and 0.2874 and 0.2634 and 0.2686 and the “TR-FRET signal at compound concentration” value ([1]; compound concentration 2.16 nM) was 0.2768 and 0.2874 and 0.2634 and 0.2686. The TR-FRET signal ([1]; compound concentration 3.6 nM) was 0.3502 and 0.3555 and 0.3511 and 0.3733, the “TR-FRET signal, individual replicate” value ([1]; compound concentration 3.6 nM) was 0.3502 and 0.3555 and 0.3511 and 0.3733 and the “TR-FRET signal at compound concentration” value ([1]; compound concentration 3.6 nM) was 0.3502 and 0.3555 and 0.3511 and 0.3733. The TR-FRET signal [1, 5] was 0.4902 and 0.4911 and 0.5114 and 0.5651, the “TR-FRET signal, individual replicate” value [1, 5] was 0.4902 and 0.4911 and 0.5114 and 0.5651 and the “TR-FRET signal at compound concentration” value [1, 5] was 0.4902 and 0.4911 and 0.5114 and 0.5651. The TR-FRET signal [1, 6] was 0.7316 and 0.7507 and 0.8127 and 0.857, the “TR-FRET signal, individual replicate” value [1, 6] was 0.7316 and 0.7507 and 0.8127 and 0.857 and the “TR-FRET signal at compound concentration” value [1, 6] was 0.7316 and 0.7507 and 0.8127 and 0.857. The TR-FRET signal [1, 7] was 1.126 and 1.191 and 1.297 and 1.247, the “TR-FRET signal, individual replicate” value [1, 7] was 1.126 and 1.191 and 1.297 and 1.247 and the “TR-FRET signal at compound concentration” value [1, 7] was 1.126 and 1.191 and 1.297 and 1.247. The TR-FRET signal [1, 8] was 1.6143 and 1.736 and 1.841 and 1.867, the “TR-FRET signal, individual replicate” value [1, 8] was 1.6143 and 1.736 and 1.841 and 1.867 and the “TR-FRET signal at compound concentration” value [1, 8] was 1.6143 and 1.736 and 1.841 and 1.867. The TR-FRET signal [1, 9] was 2.093 and 2.298 and 2.427 and 2.467, the “TR-FRET signal, individual replicate” value [1, 9] was 2.093 and 2.298 and 2.427 and 2.467 and the “TR-FRET signal at compound concentration” value [1, 9] was 2.093 and 2.298 and 2.427 and 2.467. For the same compound, the TR-FRET signal [1, 10] was 2.523 and 2.773 and 2.7872 and 2.833, the “TR-FRET signal, individual replicate” value [1, 10] was 2.523 and 2.773 and 2.7872 and 2.833 and the “TR-FRET signal at compound concentration” value [1, 10] was 2.523 and 2.773 and 2.7872 and 2.833. For the same compound, the TR-FRET signal [1, 11] was 2.957 and 3.301 and 3.125 and 3.145, the “TR-FRET signal, individual replicate” value [1, 11] was 2.957 and 3.301 and 3.125 and 3.145 and the “TR-FRET signal at compound concentration” value [1, 11] was 2.957 and 3.301 and 3.125 and 3.145. The TR-FRET signal [1, 12] was 3.117 and 3.31 and 3.185 and 3.127, the “TR-FRET signal, individual replicate” value [1, 12] was 3.117 and 3.31 and 3.185 and 3.127 and the “TR-FRET signal at compound concentration” value [1, 12] was 3.117 and 3.31 and 3.185 and 3.127. For the same compound, the EC50 [1, 13] was 60 nM, the EC50 [1, 14] was 60.3 nM and the EC50 ([1]; source data sheet correlations, read-out: TR-FRET EC50) was 60.3 nM. For the same compound, the DC50 ([2]; source data sheet correlations, read-out: DC50) was 724 nM, the EC50 ([3]; Supplementary Fig. 5, HEK293T, CellTiter Glo, 72h, read-out: Viability EC50, no MLN4924) was 3380 nM and the EC50 [3, 15] was 3500 nM. It also gave a Toxicity rescue ([3]; Supplementary Table 2) of 186%.

In the case of `CC[C@H](CO)Nc1nc(NCCCCc2ccccc2)c2ncn(C(C)C)c2n1` [DS09], the EC50 ([1]; Supplementary Table 2, read-out: TR-FRET EC50 TR-FRET) is reported as 349 nM, the “fold lower affinity than DS11” value ([1]; TR-FRET complex formation) is reported as 5-10 fold and the TR-FRET signal ([1]; compound concentration 4.68 nM) is reported as 0.1538 and 0.1597. The “TR-FRET signal at compound concentration” value ([1]; compound concentration 4.68 nM) was 0.1538 and 0.1597, the TR-FRET signal ([1]; compound concentration 21.6 nM) was 0.2215 and 0.2268 and the “TR-FRET signal at compound concentration” value ([1]; compound concentration 21.6 nM) was 0.2215 and 0.2268. The TR-FRET signal ([1]; compound concentration 36 nM) was 0.3624 and 0.3872, the “TR-FRET signal at compound concentration” value ([1]; compound concentration 36 nM) was 0.3624 and 0.3872 and the TR-FRET signal [1, 16] was 0.5721 and 0.6282. For the same compound, the “TR-FRET signal at compound concentration” value [1, 16] was 0.5721 and 0.6282, the TR-FRET signal [1, 17] was 0.8913 and 0.9385 and the “TR-FRET signal at compound concentration” value [1, 17] was 0.8913 and 0.9385. The TR-FRET signal [1, 18] was 1.311 and 1.295, the “TR-FRET signal at compound concentration” value [1, 18] was 1.311 and 1.295 and the TR-FRET signal [1, 19] was 1.632 and 1.6565. For the same compound, the “TR-FRET signal at compound concentration” value [1, 19] was 1.632 and 1.6565, the TR-FRET signal [1, 20] was 1.8858 and 2.021 and the “TR-FRET signal at compound concentration” value [1, 20] was 1.8858 and 2.021. The TR-FRET signal ([1]; compound concentration 2448 nM) was 2.206 and 2.209, the “TR-FRET signal at compound concentration” value ([1]; compound concentration 2448 nM) was 2.206 and 2.209 and the TR-FRET signal [1, 21] was 2.4811 and 2.469. For the same compound, the “TR-FRET signal at compound concentration” value [1, 21] was 2.4811 and 2.469, the TR-FRET signal [1, 22] was 2.543 and 2.456 and the “TR-FRET signal at compound concentration” value [1, 22] was 2.543 and 2.456. For the same compound, the EC50 [1, 13] was 349 ± 15 nM, the EC50 [1, 14] was 349 nM and the DC50 ([2]; Supplementary Table 2, HEK293T cycK-eGFP reporter, 5 h, read-out: Cellular assays DC50) was > 10000 nM. The EC50 [3, 15] was > 10000 nM and the Toxicity rescue ([3]; Supplementary Table 2) was 0%.
